According to patent US7947869B2, “Methods for inducing cotton embryogenic callus” (Monsanto Technology LLC, priority 2007, dated 2011):

What was measured:
Assay type in all cases: cell-based, cotton (cv. Coker 130)
[1] = system: Agrobacterium-inoculated cotton hypocotyl explants; assay: Effect of ACC on embryogenic callus from transformed tissue (pMON15722, kanamycin selection)
Procedure: Addition of ACC produced a similar enhancing effect on producing embryogenic callus from transformed tissue. The hypocotyl explants were inoculated with Agrobacterium containing a plant transformation vector pMON15722 having an expression unit conferring kanamycin tolerance. The explants were pre-soaked in 2-hr in MSO glucose medium (Table 3) before inoculation. After 2 days of co-culture at about 24° C., the inoculated hypocotyl pieces were placed on WPSEL medium containing 45 mg/L of kanamycin for 4 weeks for callus induction. After callus induction, the explants were again transferred to WPSEL medium for another 4 weeks. Different concentrations of ACC were incorporated in the medium at this step.

[2] = system: cotton hypocotyl explants; assay: Effect of ACC during callus induction or embryogenic callus induction step
Procedure: An ethylene precursor, 1-aminocyclopropane-1-carboxylic acid (ACC) was added at the step of undifferentiated callus formation, and removed prior to embryogenesis, to speed up embryogenic callus formation.
Three studies were performed to define the effect of ACC on enhancing embryogenic callus formation. In the first experiment summarized in Table 19, hypocotyl explants were placed on UMSEL medium containing different concentrations of ACC (Treatments 2-6), or containing no ACC (treatment 7). The plates were unwrapped and placed in two separate boxes (Treatments 2-6 in one box and Treatments 7-12 in another), and cultured at 28° C. with a photoperiod of 16 hr light/8 hr darkness. After four weeks of callus induction, the calli were transferred to UMO medium without ACC (Treatments 2-6), or to UMO plus different concentrations of ACC (Treatments 8-12) for embryogenic callus induction. The plates were wrapped with PARAFILM at this stage.

[3] = system: embryogenic cotton callus; assay: Effect of brassinolide on embryo production at 9% and 21% O2 levels
Procedure: When embryogenic callus was placed on brassinolide containing TRP+ medium (Table 9) at either 9% or 21% O2, more embryos were produced in the brassinolide treatments at 9% than at 21% O2. Lower level of 10 μM brassinolide gave the greatest response at 9% O2 but 100 μM level of brassinolide was more useful in 21% O2. […] Different levels of O2 were created by using a PRO-OX 110 oxygen control according to manufacturer's instructions (BioSpherix, Redfield, N.Y.) in a growth chamber (e.g. Percival Scientific, Inc., Perry, Iowa). Results in Table 12 indicate that brassinolide promotes the growth and development of embryos from cotton embryogenic callus.

[4] = system: embryogenic cotton callus; assay: Effect of brassinolide in TRP+ medium on production of embryos from embryogenic cotton callus
Procedure: A brassinosteroid plant growth regulator was used to enhance cotton embryo formation. Brassinolide (i.e. 24-epibrassinolide; Super-Grow, Montreal, Calif.), at a concentration from 2 to 100 μM was added to TRP+ medium (Table 9). Embryogenic callus from the UMO medium (Table 8) was then cultured on TRP+ medium containing Brassinolide. […] Besides an increase in the overall production of embryos, many of the embryos produced from the brassinolide treatment were 5-6 mm long heart shaped embryos (more developed), whereas there were none at this stage in the control treatment. […]

[5] = ACC 0.01 mM at callus induction step (UMSEL), removed on UMO
[6] = ACC 0.1 mM at callus induction step (UMSEL)
[7] = ACC 0.5 mM at callus induction step (UMSEL)
[8] = ACC 1 mM at callus induction step (UMSEL)
[9] = ACC 5 mM at callus induction step (UMSEL)
[10] = 2 μM brassinolide in TRP+ medium
[11] = 5 μM brassinolide in TRP+ medium
[12] = 10 μM brassinolide in TRP+ medium
[13] = 15 μM brassinolide in TRP+ medium

NC1(C(=O)O)CC1 [ACC, 1-aminocyclopropane-1-carboxylic acid]
% Pieces w/ EC after 6 weeks on UMO medium with Kanamycin ([1]; ACC 10 μM during non-embryogenic callus growth on WPSEL): 18.4%
% Pieces w/ EC after 6 weeks on UMO medium with Kanamycin ([1]; ACC 30 μM during non-embryogenic callus growth on WPSEL): 22.1%
% Pieces w/ EC after 6 weeks on UMO medium with Kanamycin ([1]; ACC 60 μM during non-embryogenic callus growth on WPSEL): 21.6%
% Pieces w/ EC after 6 weeks on UMO medium with Kanamycin ([1]; ACC 100 μM during non-embryogenic callus growth on WPSEL): 26.5%
% Pieces w/ EC after 6 weeks on UMO medium with Kanamycin ([1]; ACC 150 μM during non-embryogenic callus growth on WPSEL): 44.0%
% EC at 7 week [2, 5]: 80%
% EC at 9 week [2, 5]: 94%
% EC at 9 week ([2]; ACC 0.01 mM at embryogenic callus induction step (UMO)): 35%
% EC at 7 week [2, 6]: 50%
% EC at 9 week [2, 6]: 90%
% EC at 9 week ([2]; ACC 0.1 mM at embryogenic callus induction step (UMO)): 5%
% EC at 7 week [2, 7]: 58%
% EC at 9 week [2, 7]: 88%
% EC at 9 week ([2]; ACC 0.5 mM at embryogenic callus induction step (UMO)): 10%
% EC at 7 week [2, 8]: 28%
% EC at 9 week [2, 8]: 62%
% EC at 9 week ([2]; ACC 1 mM at embryogenic callus induction step (UMO)): 10%
% EC at 9 week ([2]; ACC 3 mM at embryogenic callus induction step (UMO)): 0%
% EC at 7 week [2, 9]: 0%
% EC at 9 week [2, 9]: 0%

CC(C)[C@@H](C)[C@@H](O)[C@H](O)[C@@H](C)[C@H]1CC[C@H]2[C@@H]3COC(=O)[C@H]4C[C@H](O)[C@H](O)C[C@]4(C)[C@H]3CC[C@]12C [Brassinolide, 24-epibrassinolide]
Number of Embryos Produced ([3]; 10 μM brassinolide, 9% O2, 4 weeks): 18
Number of Embryos Produced ([3]; 10 μM brassinolide, 9% O2, 7 weeks): 30
Number of Embryos Produced ([3]; 10 μM brassinolide, 9% O2, 9 weeks): 48
Number of Embryos Produced ([3]; 10 μM brassinolide, 21% O2, 4 weeks): 21
Number of Embryos Produced ([3]; 10 μM brassinolide, 21% O2, 7 weeks): 28
Number of Embryos Produced ([3]; 10 μM brassinolide, 21% O2, 9 weeks): 21
Number of Embryos Produced ([3]; 50 μM brassinolide, 9% O2, 4 weeks): 8
Number of Embryos Produced ([3]; 50 μM brassinolide, 9% O2, 7 weeks): 12
Number of Embryos Produced ([3]; 50 μM brassinolide, 9% O2, 9 weeks): 35
Number of Embryos Produced ([3]; 50 μM brassinolide, 21% O2, 4 weeks): 10
Number of Embryos Produced ([3]; 50 μM brassinolide, 21% O2, 7 weeks): 8
Number of Embryos Produced ([3]; 50 μM brassinolide, 21% O2, 9 weeks): 11
Number of Embryos Produced ([3]; 100 μM brassinolide, 9% O2, 4 weeks): 1
Number of Embryos Produced ([3]; 100 μM brassinolide, 9% O2, 7 weeks): 9
Number of Embryos Produced ([3]; 100 μM brassinolide, 9% O2, 9 weeks): 21
Number of Embryos Produced ([3]; 100 μM brassinolide, 21% O2, 4 weeks): 6
Number of Embryos Produced ([3]; 100 μM brassinolide, 21% O2, 7 weeks): 9
Number of Embryos Produced ([3]; 100 μM brassinolide, 21% O2, 9 weeks): 33
Brassinolide level giving the greatest response ([3]; 9% O2): 10 µM
Brassinolide level more useful ([3]; 21% O2): 100 µM
Embryo stages: 2-3 mm globules [4, 10]: 3
Embryo stages: 5-6 mm heart shaped [4, 10]: 0
Total embryos [4, 10]: 3
Embryo stages: 2-3 mm globules [4, 11]: 10
Embryo stages: 5-6 mm heart shaped [4, 11]: 8
Total embryos [4, 11]: 18
Embryo stages: 2-3 mm globules [4, 12]: 6
Embryo stages: 5-6 mm heart shaped [4, 12]: 11
Total embryos [4, 12]: 17
Embryo stages: 2-3 mm globules [4, 13]: 6
Embryo stages: 5-6 mm heart shaped [4, 13]: 9
Total embryos [4, 13]: 15
